Here are results for 31 compounds from patent US11479556B1, “Bifunctional compounds for degrading BTK via ubiquitin proteosome pathway” (NURIX THERAPEUTICS, INC., priority 2018, dated 2022).

The term DC50 denotes the midpoint of the concentration-degradation curve. Low readings indicate a more potent degrader, high ones a less potent degrader.

A value given as a limit tells only on which side of the number the result lay.

T1 sequence (Q06187 whole entry): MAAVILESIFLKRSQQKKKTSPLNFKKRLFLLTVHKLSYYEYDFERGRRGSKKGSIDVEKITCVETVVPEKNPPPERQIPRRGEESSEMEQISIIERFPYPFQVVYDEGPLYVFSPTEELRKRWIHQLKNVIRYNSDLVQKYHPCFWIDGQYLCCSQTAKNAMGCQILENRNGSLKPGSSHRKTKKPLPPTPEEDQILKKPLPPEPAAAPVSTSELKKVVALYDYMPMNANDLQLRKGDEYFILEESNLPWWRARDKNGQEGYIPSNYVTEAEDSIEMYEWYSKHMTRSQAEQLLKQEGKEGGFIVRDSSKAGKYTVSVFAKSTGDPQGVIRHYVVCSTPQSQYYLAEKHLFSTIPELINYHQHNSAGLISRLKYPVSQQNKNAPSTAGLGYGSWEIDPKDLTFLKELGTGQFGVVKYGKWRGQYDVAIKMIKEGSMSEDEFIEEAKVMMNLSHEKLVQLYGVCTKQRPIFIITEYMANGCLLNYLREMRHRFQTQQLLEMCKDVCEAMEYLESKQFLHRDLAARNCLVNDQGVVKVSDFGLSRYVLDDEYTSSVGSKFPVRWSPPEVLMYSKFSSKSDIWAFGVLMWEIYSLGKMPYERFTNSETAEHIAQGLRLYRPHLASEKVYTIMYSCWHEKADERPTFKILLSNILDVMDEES

The assay concerns the target T1, BTK (Homo sapiens, UniProt Q06187).
T1 construct: endogenous in cells; host or cells: TMD8 cells
The experiment in a line: Cellular BTK HTRF assay (BTK degradation) in TMD8 cells. The assay is classed as cell-based. The note with it: four hours incubation, Total-BTK HTRF relative to DMSO-treated cells. Here is the method:
Example 66: BTK Degradation Assay
TMD8 cells were obtained from Tokyo Medical and Dental University and were grown in alpha-MEM (Fisher 12571063) supplemented with 10% heat-inactivated FBS (Corning Premium Fetal Bovine Serum from Fisher, MT35015CV).
Compounds of the present invention were added to 50,000 TMD8 cells in round-bottom 96 well plates with a final DMSO concentration of […] and were incubated at 37° C. 5% CO2 for four hours. BTK levels were determined using Cisbio Total-BTK HTRF ([…] Time-Resolved Fluorescence) kit (63ADK064PEG) according to manufacturer's protocol. Briefly, cells were incubated in 1× supplied lysis buffer for 30 minutes. In an opaque white low volume 96 well plate (Cisbio, 66PL96005), cell lysate was combined with two different specific BTK antibodies, one conjugated with Eu^3+-Cryptate FRET donor and one conjugated with d2 FRET acceptor. Assay controls include wells containing cell lysate with only the Eu^3+-Cryptate FRET donor antibody and wells containing both HTRF antibodies and lysis buffer without cells or control lysate provided by Cisbio. HTRF ratio was calculated as (acceptor signal at 665 nm/donor signal at 620 nm)×10^4. Background HTRF levels were determined from the control well containing the donor, but no acceptor, antibody. Background HTRF levels were subtracted from all samples. Readouts were reported as HTRF levels relative to HTRF levels of DMSO-treated cells. Four-parameter non-linear regressions were performed in GraphPad Prism 7.02 to obtain DC50 values. DC50 values are provided in Table 3, wherein A<5.0 nM, 5.0 nM≤B≤15 nM, and 15 nM<C.
Compound `CN1CCN([C@@H]2CCCN(c3cnc(C(N)=O)c(Nc4ccc(N5CCN(C[C@H]6CCN(c7ccc8c(c7)C(=O)N(C7CCC(=O)NC7=O)C8=O)C6)CC5)cc4)n3)C2)C1=O` (stereo partly shown) [Compound 42] showed a half-maximal degradation concentration (DC50) of less than 5 nM.
The compound `CN1CCN([C@@H]2CCCN(c3cnc(C(N)=O)c(Nc4ccc(N5CCN(CCC6CN(c7ccc8c(c7)C(=O)N(C7CCC(=O)NC7=O)C8=O)C6)CC5)cc4)n3)C2)C1=O` (stereo partly shown) [Compound 43] came in with a DC50 of less than 5 nM.
`CN1CCN([C@@H]2CCCN(c3cnc(C(N)=O)c(Nc4ccc(C5CCN(CCC6CN(c7ccc8c(c7)C(=O)N(C7CCC(=O)NC7=O)C8=O)C6)CC5)cc4)n3)C2)C1=O` (stereo partly shown) [Compound 45]: the DC50 was less than 5 nM.
With `CN1CCN([C@@H]2CCCN(c3cnc(C(N)=O)c(Nc4ccc(N5CCN(C[C@@H]6CCCN(c7ccc8c(c7)C(=O)N(C7CCC(=O)NC7=O)C8=O)C6)CC5)cc4)n3)C2)C1=O` (stereo partly shown) [Compound 46] the figure was less than 5 nM; with `CN1CCN([C@@H]2CCCN(c3cnc(C(N)=O)c(Nc4ccc(C5CCN(c6ccc7c(c6)C(=O)N(C6CCC(=O)NC6=O)C7=O)CC5)cc4)n3)C2)C1=O` (stereo partly shown) [Compound 47], less than 5 nM.
The compound `CN1CCN([C@@H]2CCCN(c3cnc(C(N)=O)c(Nc4ccc(N5CCN(C[C@H]6CCCN(c7ccc8c(c7)C(=O)N(C7CCC(=O)NC7=O)C8=O)C6)CC5)cc4)n3)C2)C1=O` (stereo partly shown) [Compound 48] gave a DC50 of less than 5 nM.
Consider `CN1CCN([C@@H]2CCCN(c3cnc(C(N)=O)c(Nc4ccc(N5CCN(CC6CCN(c7ccc8c(c7)C(=O)N(C7CCC(=O)NC7=O)C8=O)CC6)CC5)cc4)n3)C2)C1=O` (stereo partly shown) [Compound 49], for which the DC50 was less than 5 nM.
The compound `CN1CCN([C@@H]2CCCN(c3cnc(C(N)=O)c(Nc4ccc(C5CCN(C[C@H]6CCCN(c7ccc8c(c7)C(=O)N(C7CCC(=O)NC7=O)C8=O)C6)CC5)cc4)n3)C2)C1=O` (stereo partly shown) [Compound 50] returned a DC50 of less than 5 nM.
Take `CN1CCN([C@@H]2CCCN(c3cnc(C(N)=O)c(Nc4ccc(C5CCN(C[C@@H]6CCN(c7ccc8c(c7)C(=O)N(C7CCC(=O)NC7=O)C8=O)C6)CC5)cc4)n3)C2)C1=O` (stereo partly shown) [Compound 52]: the DC50 was less than 5 nM.
With `CN1CCN([C@@H]2CCCN(c3cnc(C(N)=O)c(Nc4ccc(C5CCN(CC6CN(c7ccc8c(c7)C(=O)N(C7CCC(=O)NC7=O)C8=O)C6)CC5)cc4)n3)C2)C1=O` (stereo partly shown) [Compound 54] the figure was less than 5 nM; with `CN1CCN([C@@H]2CCCN(c3cnc(C(N)=O)c(Nc4ccc(N5CCC6(CC5)CCN(c5ccc7c(c5)C(=O)N(C5CCC(=O)NC5=O)C7=O)CC6)cc4)n3)C2)C1=O` (stereo partly shown) [Compound 55], less than 5 nM; with `CN1CCN([C@@H]2CCCN(c3cnc(C(N)=O)c(Nc4ccc(N5CCC6(CCN(CCCCc7cccc8c7CN(C7CCC(=O)NC7=O)C8=O)CC6)CC5)cc4)n3)C2)C1=O` (stereo partly shown) [Compound 56], less than 5 nM.
In turn, `CN1CCN([C@@H]2CCCN(c3cnc(C(N)=O)c(Nc4ccc(N5CCC6(CCN(C(=O)CCOCCCc7cccc8c7CN(C7CCC(=O)NC7=O)C8=O)CC6)CC5)cc4)n3)C2)C1=O` (stereo partly drawn) [Compound 57, 3-((4-(9-(3-(3-(2-(2,6-dioxopiperidin-3-yl)-1-oxoisoindolin-4-yl)propoxy)propanoyl)-3,9-diazaspiro[5.5]undecan-3-yl)phenyl)amino)-5-((R)-3-(3-methyl-2-oxoimidazolidin-1-yl)piperidin-1-yl)pyrazine-2-carboxamide] gave a DC50 of less than 5 nM.
`CN1CCN([C@@H]2CCCN(c3cnc(C(N)=O)c(Nc4ccc(C5(C)CCN(c6ccc7c(c6)C(=O)N(C6CCC(=O)NC6=O)C7=O)CC5)cc4)n3)C2)C1=O` (stereo partly shown) [Compound 58] yielded a 50% degradation concentration (DC50) of 5 to 15 nM.
For the compound `CN1CCN([C@@H]2CCCN(c3cnc(C(N)=O)c(Nc4ccc(N5CCN(C[C@@H]6CCN(c7ccc8c(c7)C(=O)N(C7CCC(=O)NC7=O)C8=O)C6)CC5)cc4)n3)C2)C1=O` (stereo partly shown) [Compound 59], the DC50 was less than 5 nM.
For `CN1CCN([C@@H]2CCCN(c3cnc(C(N)=O)c(Nc4ccc(N5CCN(CC6CN(c7ccc8c(c7)C(=O)N(C7CCC(=O)NC7=O)C8=O)C6)CC5)cc4)n3)C2)C1=O` (stereo partly shown) [Compound 60], the DC50 is less than 5 nM.
Compound `CN1CCN([C@@H]2CCCN(c3cnc(C(N)=O)c(Nc4cccc(NC(=O)CCCN5CCN(c6ccc7c(c6)C(=O)N(C6CCC(=O)NC6=O)C7=O)CC5)c4)n3)C2)C1=O` (stereo partly shown) [Compound 62] registered a DC50 of more than 15 nM.
Consider `CN1CCN([C@@H]2CCCN(c3cnc(C(N)=O)c(Nc4cccc(NC(=O)[C@H]5C[C@@H](OCCCc6cccc7c6C(=O)N(C6CCC(=O)NC6=O)C7=O)C5)c4)n3)C2)C1=O` (stereo partly shown) [Compound 63], for which the DC50 was more than 15 nM.
Compound `CN1CCN([C@@H]2CCCN(c3cnc(C(N)=O)c(Nc4ccc(CCCNc5ccc6c(c5)C(=O)N(C5CCC(=O)NC5=O)C6=O)cc4)n3)C2)C1=O` (stereo partly shown) [Compound 65] came in with a DC50 of more than 15 nM.
Take `CN1CCN([C@@H]2CCCN(c3cnc(C(N)=O)c(Nc4ccc(C5(C)CCN(C6CC(Nc7cccc8c7C(=O)N(C7CCC(=O)NC7=O)C8=O)C6)CC5)cc4)n3)C2)C1=O` (stereo partly shown) [Compound 66]: the DC50 was less than 5 nM.
On to `NC(=O)c1ncc(N2CCCCC2)nc1Nc1ccc(N2CCN(C(=O)CCOCCCc3cccc4c3CN(C3CCC(=O)NC3=O)C4=O)CC2)cc1` (stereo not shown) [Compound 67], for which the DC50 was more than 15 nM.
`CN1CCN([C@@H]2CCCN(c3cnc(C(N)=O)c(Nc4ccc(C5CN(CC6CCN(c7ccc8c(=O)n(C9CCC(=O)NC9=O)ccc8c7)CC6)C5)cc4)n3)C2)C1=O` (stereo partly shown) [Compound 69] gave a half-maximal degradation concentration (DC50) of less than 5 nM.
As to `CN1CCN([C@@H]2CCCN(c3cnc(C(N)=O)c(Nc4ccc(N5CC6CN(Cc7ccc8c(c7)C(=O)N(C7CCC(=O)NC7=O)C8=O)CC6C5)cc4)n3)C2)C1=O` (stereo partly shown) [Compound 76], the 50% degradation concentration (DC50) lay within 5 to 15 nM.
Next, `CN1CCN([C@H]2CCCN(c3cnc(C(N)=O)c(Nc4cnn(C5CCN(C6CCN(c7ccc8c(c7)C(=O)N(C7CCC(=O)NC7=O)C8=O)CC6)CC5)c4)n3)C2)C1=O` (stereo partly shown) [Compound 77]: less than 5 nM.
Compound `CN1CCN([C@H]2CCCN(c3cnc(C(N)=O)c(Nc4ccc(N5CC6CN(c7ccc8c(c7)C(=O)N(C7CCC(=O)NC7=O)C8=O)CC6C5)cc4)n3)C2)C1=O` (stereo partly shown) [Compound 79] showed a DC50 of more than 15 nM.
For `CN1CCN([C@H]2CCCN(c3cnc(C(N)=O)c(Nc4ccc(N5CCC6(CCN(c7ccc8c(c7)C(=O)N(C7CCC(=O)NC7=O)C8=O)CC6)CC5)nc4)n3)C2)C1=O` (stereo partly shown) [Compound 80], the DC50 is less than 5 nM.
`CN1CCN([C@H]2CCCN(c3cnc(C(N)=O)c(Nc4ccc(N5CCC6(CC5)CCN(c5ccc7c(c5)C(=O)N(C5CCC(=O)NC5=O)C7=O)CC6)cn4)n3)C2)C1=O` (stereo partly shown) [Compound 81] registered a DC50 of more than 15 nM.
As for `CN1CCN([C@@H]2CCCN(c3cnc(C(N)=O)c(Nc4ccc(N5CCN(CC6CN(c7ccc8c(c7)C(=O)N(C7CCC(=O)NC7=O)C8=O)C6)CC5)cc4)n3)C2)C1=O` (stereo partly shown) [Compound 82], the DC50 was less than 5 nM.
In turn, `CN1CCN([C@H]2CCCN(c3cnc(C(N)=O)c(Nc4cnn(C5CCN(CC6CCN(c7ccc8c(c7)C(=O)N(C7CCC(=O)NC7=O)C8=O)CC6)CC5)c4)n3)C2)C1=O` (stereo partly shown) [Compound 83] gave a half-maximal degradation concentration (DC50) of less than 5 nM.
As to `CN1CCN([C@H]2CCCN(c3cnc(C(N)=O)c(Nc4cnn(C5CCN(CCCc6cccc7c6CN(C6CCC(=O)NC6=O)C7=O)CC5)c4)n3)C2)C1=O` (stereo partly shown) [Compound 84], the half-maximal degradation concentration (DC50) is more than 15 nM.
As to `CN1CCN([C@@H]2CCCN(c3cnc(C(N)=O)c(Nc4ccc(C5CN(CC6CN(c7ccc8c(c7)C(=O)N(C7CCC(=O)NC7=O)C8=O)C6)C5)cc4)n3)C2)C1=O` (stereo partly shown) [Compound 85], the DC50 is less than 5 nM.
